Assay results reported in patent publication US20160296536A1, “Administration of Glucocorticoid Steroids to Livestock” (Animal Biotech, LLC, priority 2015, published 2016).

Columns and labels:
[1] = Example 1: serum cortisol in piglet blood samples (commercial kit); assay type: in vivo, piglets; conditions: 24 h after weaning; P>0.05
Source text: In a study, a total of 64 piglets (32 gilts [females] and 32 barrows [castrated males]) with initial body weight (BW) of 4.8±0.7 Kg were assigned to four treatments. Treatments were in a 4×2 factorial arrangement with a completely randomized design with two main factors: (I) control (Con), two levels of cortisol agonist (Dexamethasone; DEX; subdivided into 2 dosage levels: DEXA and DEXB), or cortisol antagonist (Metyrapone; MET), and (II) gender (gilt vs. barrow). See Table at FIG. 9, for a summary of the list of the treatments, drug dosage, and number of the animals per treatment. Dexamethasone was injected intramuscular at dosages shown, while Metyrapone was mixed with applesauce and fed to the animals with a syringe. The study lasted for 5 weeks. It began one week before weaning (14-day old piglets), and continued 4 weeks after the weaning. Pigs were weaned at the age of 21-days. Piglets received the treatments either orally via diet or by intra-muscular injection one week before and again 24 hours before weaning. […] Serum cortisol was determined using a commercial kit. Feed intake, average daily gain, feed efficiency, and mortality/morbidity was determined. Body weights (body mass) of the animals were measured on a daily basis for a week after weaning, and then on a weekly basis until the end of the study. […]

[2] = Example 1: body weight and feed efficiency of piglets treated before weaning; assay type: in vivo; conditions: for higher body weight relative to control animals: MET fed orally one week before and 24 hours before weaning; for higher body weight relative to control animals / improvement of (average) body weight: P<0.01; for improvement of (average) body weight: gilts (female pigs), intramuscular; for higher body weight than the controls at day 35 of the study: P<0.05
Source text: In a study, a total of 64 piglets (32 gilts [females] and 32 barrows [castrated males]) with initial body weight (BW) of 4.8±0.7 Kg were assigned to four treatments. Treatments were in a 4×2 factorial arrangement with a completely randomized design with two main factors: (I) control (Con), two levels of cortisol agonist (Dexamethasone; DEX; subdivided into 2 dosage levels: DEXA and DEXB), or cortisol antagonist (Metyrapone; MET), and (II) gender (gilt vs. barrow). See Table at FIG. 9, for a summary of the list of the treatments, drug dosage, and number of the animals per treatment. Dexamethasone was injected intramuscular at dosages shown, while Metyrapone was mixed with applesauce and fed to the animals with a syringe. The study lasted for 5 weeks. It began one week before weaning (14-day old piglets), and continued 4 weeks after the weaning. Pigs were weaned at the age of 21-days. Piglets received the treatments either orally via diet or by intra-muscular injection one week before and again 24 hours before weaning. Blood samples were collected by venipuncture of the jugular vein on day 14, 20, 21, 22, 23, 24, 26, 28, and 35 of age. Serum cortisol was determined using a commercial kit. Feed intake, average daily gain, feed efficiency, and mortality/morbidity was determined. Body weights (body mass) of the animals were measured on a daily basis for a week after weaning, and then on a weekly basis until the end of the study. See, FIGS. 2 and 3.

[3] = Example 2: body mass, daily gain, feed intake and gain-to-feed of weaned gilts; assay type: in vivo, piglets; conditions: weaned pigs; 0.2 mg/kg intramuscular
Description: In this test, eighteen gilts (of commercially relevant genetics) were weaned at 23±2 days of age. These were housed in floor pens (3 pigs per pen), and assigned to 3 treatments: (1) unweaned suckling that received saline but no cortisol agonist (UWS), (2) weaning that received only saline (WS), and (3) weaning that received the cortisol agonist (WC). The piglets of Group (3) received a cortisol agonist (0.2 mg dexamethasone per kg of body mass) via intramuscular injection on the day before commencing weaning, and day 3 post-weaning. Those of Groups (1) and (2) received instead only a saline solution intra-muscular injection at the same time intervals. Body mass (BW) was monitored daily, and average daily mass gain (ADG) and mass of feed intake (ADFI) were measured and/or estimated for the course of the study. […] Data was analyzed using mixed procedures in SAS (PROC MIXED). Repeated measure analysis of variance was used for the parameters that were measured over time.

Compound | effect on serum cortisol levels [1] | increase of average body weight of the piglets ([2]; all piglets, average over the course of the study) | higher body weight relative to control animals ([2]; barrows) | effect on body weight of piglets at day 35 of the study ([2]; day 35) | higher body weight relative to control animals ([2]; gilts) | effect on body weight ([2]; barrows, anti-inflammatory dose, P>0.05) | improvement of (average) body weight ([2]; DEXA dose (anti-inflammatory)) | improvement of (average) body weight ([2]; DEXB dose (immunosuppressive)) | improvement of (average) body weight ([2]; DEXB dose (immunosuppressive), listed as dexamethasone) | higher body weight than the controls at day 35 of the study ([2]; gilts, DEXA dose, day 35) | higher body weight than the controls at day 35 of the study ([2]; gilts, DEXB dose, day 35) | effect on ADFI (mass of feed intake) [3] | effect on ADG (average daily mass gain) [3]
CC(C)(C(=O)c1cccnc1)c1cccnc1 [MET, Metyrapone] | Neither MET nor DEX had an effect | 3.4% | 3% | no effect | 4% | – | – | – | – | – | – | – | –
C[C@@H]1C[C@H]2[C@@H]3CCC4=CC(=O)C=C[C@]4(C)[C@@]3(F)[C@@H](O)C[C@]2(C)[C@@]1(O)C(=O)CO [Dexamethasone] | – | – | – | – | – | no effect | 9.3% | 4.1% | 4.4% | 13% | 12% | no effect | no effect
